Here are results for ten molecules from US20080306019A1, “Dopamine Receptor Agonists in the Treatment and Prevention of Hiv-Induced Dementia” (priority 2005, published 2008).

Data set [1] relates to Sprague-Dawley rats. Description: Neonatal hippocampal gp120 injections with or without apomorphine: PPI in adult rats. It counts as in vivo, rat.
In data set [2] the test system is human fetal neurons. To be noted: for magnitude of cell death vs Locke's buffer control: HIV proteins plus cocaine challenge with steroid pretreatment; for neuroprotection against synergistic toxicity of HIV proteins plus cocaine (percent neuronal death): pretreatment before Tat1-72 (40 nM) + gp120 (32.5 pM) + cocaine (1.6 μM). On the procedure: Culture of Human Brain Cells: Neuronal cultures were prepared as described previously (Magnuson D S, et al. Ann Neurol 1995, 37: 373-380; Nath A, et al. J Virol 1996, 70: 1475-1480; New D, et al. J Neurovirol 1997, 3: 168-173). Human fetal brain specimens of gestational age 12-14 weeks were obtained with the consent of women opting for elective termination of pregnancy. Protocols were carried out with strict adherence to the guidelines of the National Institutes of Health (NIH) and with approval from the University of Kentucky Institutional Review Board. Briefly, after mechanical dissociation, the cells were suspended in Opti-MEM with 5% heat-inactivated fetal bovine serum, 0.2% N2 supplement and 1% antibiotic solution (penicillin G sodium 104 units/ml, streptomycin sulfate 10 μg/ml and amphotericin-B 25 μg/ml) (GIBCO). The cells were maintained in culture flasks at 37° C. in a humidified atmosphere of 5% CO2 and 95% air for at least a month. At least 3 days before the experiment was performed the cells were plated in flat bottom 96 well plates coated with poly-d-lysine. Sample cultures were stained for the neuron-specific enolase, microtubule-associated protein-2, synaptophysin, and glial fibrillary astrocytic protein (GFAP). […] Sample cultures were further characterized for the presence of ER-α and ER-β and dopaminergic neurons.
Neurotoxicity Assay: At the time of the experimental treatment, the culture media was replaced with Locke's buffer containing (in mM) 154 NaCl, 5.6 KCl, 2.3 CaCl2, 1 MgCl2, 3.6 NaHCO3, 5 glucose, 5 N-2-hydroxyethylpiperazine-N′2-ethanesulfonic acid (HEPES) and 1% antibiotic solution (penicillin G sodium 104 units/ml, streptomycin sulfate 10 μg/ml and amphotericin-B 25 μg/ml) (pH 7.2). […] To replicate the stereoisomer specific neuroprotective properties of estrogen, the cultures were treated with either […] (10 nM), or 17α-E2 (10 nM) immediately preceding addition of the HIV proteins plus cocaine. To investigate the neuroprotective properties of other gonadal steroids, the cells were treated with various concentrations of PROG or T, immediately followed by exposure to the HIV proteins plus cocaine. […] Various concentrations of cholesterol were used as treatment prior to incubation with the HIV proteins plus cocaine to further characterize the nature of gonadal steroid neuroprotection. ICI-182,780, DMSO (10 nM), β-cyclodextrin (100 nM) and ethanol (10 nM) were also tested for neurotoxic/protective effects. ICI-182,780 and 17α-E2 were solvated in DMSO. […], T, PROG and cholesterol were β-cyclodextrin encapsulated to provide water solubility. Ethanol was used to solvate DHT. Tat1-72 was produced as indicated above, whereas gp120 was a gift from Chiron Corporation. The ICI-182,780 compound was obtained from Tocris Cookson, Inc. (Ellisville, Mo.). All other chemical agents were supplied by Sigma Chemicals (St. Louis, Mo.). At the end of the incubation period neuronal death was assessed by trypan blue (Sigma) exclusion assay as described previously (Vongher J and Frye C. Pharmacol Biochem Behav 1999, 64: 777-785; Magnuson D S, et al. Ann Neurol 1995, 37: 373-380; Nath A, et al. J Virol 1996, 70: 1475-1480).

For data set [3], the system named is SK-N-SH cells. In words: DCFH fluorescence (oxidative stress) in SK-N-SH cells. To be noted: for effect of hormone on tat+gp120-induced fluorescence: gp120 (30 pM)+tat (60 nM), hormone 0.1 to 100 nM. It counts as cell-based, human. On the procedure:
Cell Culture Assays: SK-N-SH cells (ATCC) were grown in RPMI 1640 with 1% streptomycin/amphotericin and 10% FBS and incubated at 37° C. in the presence of 5% CO2. Cells were subcultured into 96-well plates at a density of 10^4 cell/well and used within 24 hours. Plates were first washed with warmed Krebs buffer (KHB). Stock DCFH in DMSO was diluted in KHB to a final concentration of 100 μM and incubated in each well for 30 minutes. DCFH dye was removed and cells were washed with warmed KHB and the appropriate drug or drug combination was added. Plates were returned to the incubator and drugs were allowed to incubate for 30 minutes. Incubation with the free radical generator SIN-1 (3-morpholinosydnonimine-peroxynitrite and superoxide) was carried out for an additional 30 minutes. The second series of experiments utilized tat (10-250 nM) or gp120 (25-100 pM) in place of the free radical generator.
The concentration of either E2 or progesterone was 0.1 to 100 nM. Plates were returned to the incubator with the hormones and were allowed to incubate for 15 minutes. SIN-1 (50 μM) was chosen as the free radical generator due to the production of peroxynitrite. Previous studies have shown that this concentration of SIN-1 yielded maximum increases in DCFH fluorescence (Wang and Joseph, 1999). In groups that examined the protective effects of E2 and/or progesterone, the hormone was added 15 minutes prior to addition of SIN-1, tat or gp120. Studies that have examined the simultaneous addition of the oxidative stress agent and hormone have yielded attenuated results. Following incubation with SIN-1, tat or gp120 (depending on the assay), fluorescence was determined by using a Bio-Tek plate reader with the settings of 485 n (excitation) and 585 nm (emission) with an integration time of 40 ms. Assays were run four separate times in triplicate. Data are expressed as mean of the separate assays±SEM.

In data set [4] the test system is rat hippocampal neurons. Description: Live/Dead (Calcein/Ethidium) viability of rat hippocampal neuronal cultures.
Data set [5] deals with T1, dopamine transporter (Rattus norvegicus, UniProt P23977).
T1 construct: followed by differential centrifugation resulting in a crude P2 preparation; from tissue; host or cells: rat striatum (synaptosomes, crude P2 preparation)
T1 sequence (P23977 whole entry): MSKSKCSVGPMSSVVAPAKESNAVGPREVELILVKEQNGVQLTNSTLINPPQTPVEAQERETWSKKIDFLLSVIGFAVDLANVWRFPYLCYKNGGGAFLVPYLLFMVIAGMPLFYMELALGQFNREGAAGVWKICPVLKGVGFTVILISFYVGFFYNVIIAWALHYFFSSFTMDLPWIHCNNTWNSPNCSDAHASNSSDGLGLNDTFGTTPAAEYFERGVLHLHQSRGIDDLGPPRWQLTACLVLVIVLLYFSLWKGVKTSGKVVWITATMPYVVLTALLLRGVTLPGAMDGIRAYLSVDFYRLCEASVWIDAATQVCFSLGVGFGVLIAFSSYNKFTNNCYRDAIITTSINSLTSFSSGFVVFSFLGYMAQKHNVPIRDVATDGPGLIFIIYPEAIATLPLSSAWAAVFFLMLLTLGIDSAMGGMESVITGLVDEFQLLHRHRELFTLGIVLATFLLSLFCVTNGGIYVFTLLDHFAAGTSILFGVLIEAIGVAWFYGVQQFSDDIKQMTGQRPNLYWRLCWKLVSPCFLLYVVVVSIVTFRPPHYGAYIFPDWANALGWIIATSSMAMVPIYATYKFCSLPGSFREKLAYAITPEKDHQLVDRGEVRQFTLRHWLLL
Description: [3H] dopamine uptake in rat striatal synaptosomes. It counts as biochemical. On the procedure: [^3H] Dopamine uptake in synaptosomes assays: Striatal tissue from 4-5 month old male Sprague-Dawley rats (N=4) was homogenized in 5 mL ice-cold 0.32 M sucrose using a glass/Teflon homogenizer followed by differential centrifugation resulting in a crude P2 preparation. Crude P2 preparations are resuspended to a final volume of 15 mL (0.13-0.15 μg protein/tube) in assay buffer (consisting of 25 mM HEPES, 120 mM NaCl, 5 mM KCl, 2.5 mM CaCl2, 1.2 mM MgSO4, […] ascorbic acid, 1 μM pargyline and 2 mg/mL D-(+) glucose). P2 preparation was then added to assay tubes in 400 μL, followed by 50 μL of buffer or drug. Uptake was initiated by the addition of [7, 8 ^3H] dopamine, 0.02 M acetic acid:ethanol (1:1) solution (Amersham Biosciences, UK). Synaptosomes were preincubated first with 100 nM E2 30 minutes to the initiation of uptake, followed by addition of the appropriate concentrations of gp120 (30 pM) and tat (60 nM), or both proteins, 15 minutes prior to the start of the uptake assay. […] Filters were washed 15 seconds with ice-cold 0.9% NaCl and total [^3H] dopamine uptake was determined by scintillation spectrophotometry. Nonspecific uptake was determined in a parallel set of tubes run in the presence of 1 μM Mazindol, a dopamine uptake inhibitor. Data are expressed as the mean±SEM (N=4).

Setting [6] is: HIV proteins plus cocaine challenge.

With `CN1CCc2cccc3c2[C@H]1Cc1ccc(O)c(O)c1-3` [APO, apomorphine], the “peak ASR magnitude in PPI trials: gp120×drug interaction” value in data set [1] (8-120 msec ISIs) was “significantly altered the gp120 dose response”. Moreover, in data set [1] (rat, in vivo), the “peak ASR latency in PPI trials” value was “did not have an impact on latency response” and the “peak ASR magnitude, adaptation trials: apomorphine” value is on record as “attenuated the baseline of peak magnitude of the ASR”.

`C[C@]12CCC(=O)C[C@@H]1CC[C@@H]1[C@@H]2CC[C@]2(C)[C@@H](O)CC[C@@H]12` [DHT, 5α-Androstan-17β-ol-3-one; 17β-Hydroxy-5α-androstan-3-one]: the “concentration dependence of effect on percent neuronal death” value in data set [2] (setting [6]) is given as “no concentration-dependent effect”. Also, the “magnitude of cell death vs Locke's buffer control” value in data set [2] is “significantly greater than that observed with Locke's Buffer control”. Besides, the “neuroprotection against synergistic toxicity of HIV proteins plus cocaine (percent neuronal death)” value (“neuroprotection … (percent neuronal death)” below) in data set [2] (15 hours) is recorded as “significant neuroprotection”.

`N=c1c[n+](N2CCOCC2)[n-]o1` [SIN-1, 3-morpholinosydnonimine]: in data set [3] (SIN-1 0-500 μM), the “lowest concentration with significant increase in fluorescence” value is 5 µM.

Regarding `Fc1ccc(C(OCCN2CCN(CCCc3ccccc3)CC2)c2ccc(F)cc2)cc1` [GBR-12909], the “neurotoxicity of GBR 12909 alone” value in data set [4] (doses from 0.05 to 6 μM) is recorded as “not neurotoxic”.

For `C[C@]12CC[C@@H]3c4ccc(O)cc4CC[C@H]3[C@@H]1CC[C@@H]2O` [E2, 17β-estradiol], the “SIN-1-induced fluorescence at highest concentration of E2” value in data set [3] (100 nM E2, 50 μM SIN-1) is “reduced fluorescence levels to control values”. Further, in data set [3] (50 μM SIN-1, E2 0.1 to 100 nM), the “lowest E2 concentration with significant reduction of SIN-1-induced fluorescence” value turned out to be 1 nM. Also, the “effect of hormone on tat+gp120-induced fluorescence” value in data set [3] was “concentrations of 1, 10 and 100 nM E2 were each significantly (p<0.001) different from control values”. In addition, the “Vmax with gp120 + tat + E2” value in data set [5] (100 nM E2 with gp120 and tat, control 231) is given as 220 nmol/mg protein/minute. The “effect of E2 on gp120- or tat-induced reduction of [3H] dopamine uptake” value in data set [5] (co-incubation with 100 nM E2) is given as “reversed this reduction”. Also, the “neuroprotection … (percent neuronal death)” value in data set [2] (15 hours) is on record as “precluded by pretreatment with 10 nM dose of 17β-E2”.

With `C[C@]12CC[C@@H]3c4ccc(O)cc4C[C@@H](CCCCCCCCC[S+]([O-])CCCC(F)(F)C(F)(F)F)[C@H]3[C@@H]1CC[C@@H]2O` (stereo partly shown) [ICI-182,780], the “effect of ICI 182,780 on E2 attenuation of tat+gp120-induced fluorescence” value in data set [3] (100 nM E2+1 μM ICI 182,780) is recorded as “Neither progesterone nor E2+ICI 182,780 values differed significantly from control values”. In addition, in data set [2] (ICI-182,780 100 nM pretreatment), the “blockade of T (10 nM) neuroprotection” value was “fully blocked”. The “neuroprotection … (percent neuronal death)” value in data set [2] (15 hours) is “nor was it neuroprotective against the toxic challenge”. In data set [2] (substance alone, 15 hours), the “toxicity alone vs Locke's buffer” value is reported as “not more toxic to the cultures than was Locke's buffer”.

In the case of `CC(C)CCC[C@@H](C)[C@H]1CC[C@H]2[C@@H]3CC=C4C[C@@H](O)CC[C@]4(C)[C@H]3CC[C@]12C` [Cholesterol], in data set [2] (setting [6]), the “concentration dependence of effect on percent neuronal death” value is recorded as “concentration-dependent effect of cholesterol with a significant linear decrease in percent neuronal death” and the “concentration giving maximal / full neuroprotection” value was determined as 100 nM. For the same molecule, in data set [2], the “magnitude of cell death vs Locke's buffer control” value is on record as “not significantly different from that observed by Locke's buffer incubation”. Further, the “neuroprotection … (percent neuronal death)” value in data set [2] (15 hours) is given as “Significant neuroprotection”.

As for `C[C@]12CC[C@@H]3c4ccc(O)cc4CC[C@H]3[C@@H]1CC[C@H]2O` [17α-E2], the “neuroprotection … (percent neuronal death)” value in data set [2] (15 hours) is “not significantly different from the synergistic toxicity control”.

On to `CC(=O)[C@H]1CC[C@H]2[C@@H]3CCC4=CC(=O)CC[C@]4(C)[C@H]3CC[C@]12C` [PROG, progesterone], for which the “effect of hormone on tat+gp120-induced fluorescence” value in data set [3] was “had no effect on tat+gp120-induced fluorescence”. Moreover, the “concentration dependence of effect on percent neuronal death” value in data set [2] (setting [6]) is reported as “no concentration-dependent effect”. The “magnitude of cell death vs Locke's buffer control” value in data set [2] was “significantly greater than that observed with Locke's Buffer control”. Further, in data set [2] (15 hours), the “neuroprotection … (percent neuronal death)” value is “significant neuroprotection”.

In the case of `CN1CCc2cc(Cl)c(O)cc2[C@@H](c2ccccc2)C1` [SCH 23390], in data set [4] (0.1 to 10 μM), the “neuronal cell viability, SCH 23390 alone” value is “did not cause any changes in neuronal cell viability”.
